This note sets out measurements from patent publication US9624241B2 (Incyte Corporation, priority 2013, dated 2017).

SMILES strings stand for the structures.

The assay concerns BET proteins. As to the kind of experiment: BET protein inhibition, assay not specified. The note with it: comparison of chiral HPLC peaks.

For `Cc1noc(C)c1-c1ccc2[nH]c(=O)n3c2c1OCC3c1ccccc1` (single isomer, unassigned) [Example 1A, 7-(3,5-Dimethylisoxazol-4-yl)-4-phenyl-4,5-dihydroimidazo[1,5,4-de][1,4]benzoxazin-2(1H)-one], the “relative activity of separated enantiomers” value is given as “more active”. Turning to `Cc1noc(C)c1-c1ccc2[nH]c(=O)n3c2c1OCC3c1ccccc1` (single isomer, unassigned) [Example 1B, 7-(3,5-Dimethylisoxazol-4-yl)-4-phenyl-4,5-dihydroimidazo[1,5,4-de][1,4]benzoxazin-2(1H)-one], the “relative activity of separated enantiomers” value was “less active”.
